Measured values published in patent publication US4349667A, “Aminoglycoside antibiotic G-367-2” (Toyo Jozo Kabushiki Kaisha, priority 1979, dated 1982).
≈ marks a conversion by molar mass, not a printed value.

Columns and labels:
Type in all cases: cell-based
Gram negative bacteria = experiment: antibacterial effect against Gram negative bacteria
From the text: (§1) The antimicrobial spectrum (minimum inhibitory concentration, MIC) of G-367-2 by agar dilution method is as follows: […]

[1] = system: Staphylococcus epidermidis sp-al-1; experiment: antimicrobial spectrum (MIC) by agar dilution method; details: SPAL1, read-out: minimum inhibitory concentration, MIC
From the text: as §1

[2] = system: Citrobacter freundii GN346; experiment: as above; details: GN346, read-out: minimum inhibitory concentration, MIC
From the text: as §1

[3] = system: Pseudomonas aeruginosa IAM1095; experiment: as above; details: read-out: minimum inhibitory concentration, MIC
From the text: as §1

[4] = system: Pseudomonas aeruginosa ML4561 Rms166; experiment: as above; details: ML4561RMS166, read-out: minimum inhibitory concentration, MIC
From the text: as §1

Pseudomonas putida 1842 = experiment: as above; details: read-out: minimum inhibitory concentration, MIC
From the text: as §1

[5] = system: Salmonella enteritidis Gartner; experiment: as above; details: Salmonella enterica, read-out: minimum inhibitory concentration, MIC
From the text: as §1

[6] = system: Enterobacter aerogenes 0655; experiment: as above; details: Klebsiella aerogenes, read-out: minimum inhibitory concentration, MIC
From the text: as §1

Proteus rettgeri ACR = experiment: as above; details: Providencia rettgeri, read-out: minimum inhibitory concentration, MIC
From the text: as §1

Shigella sonnei E33 = experiment: as above; details: read-out: minimum inhibitory concentration, MIC
From the text: as §1

[7] = system: Pseudomonas maltophilia 1850; experiment: as above; details: Stenotrophomonas maltophilia, read-out: minimum inhibitory concentration, MIC
From the text: as §1

[8] = system: Enterobacter cloacae GN336; experiment: as above; details: read-out: minimum inhibitory concentration, MIC
From the text: as §1

[9] = system: Staphylococcus aureus ATCC 6538P; experiment: as above; details: ATCC6538P, read-out: minimum inhibitory concentration, MIC
From the text: as §1

[10] = system: Escherichia coli NIHJ-JC2; experiment: as above; details: NIHJJC2, read-out: minimum inhibitory concentration, MIC
From the text: as §1

[11] = system: Pseudomonas aeruginosa 1946; experiment: as above; details: read-out: minimum inhibitory concentration, MIC
From the text: as §1

[12] = system: Staphylococcus aureus MS 27; experiment: as above; details: MS27, read-out: minimum inhibitory concentration, MIC
From the text: as §1

[13] = system: Staphylococcus aureus 0119; experiment: as above; details: read-out: minimum inhibitory concentration, MIC
From the text: as §1

[14] = system: Escherichia coli W3630 RGN14; experiment: as above; details: W3630RGN14, read-out: minimum inhibitory concentration, MIC
From the text: as §1

Serratia marcescens = experiment: as above; details: read-out: minimum inhibitory concentration, MIC
From the text: as §1

Proteus morganii 0239 = experiment: as above; details: Morganella morganii, read-out: minimum inhibitory concentration, MIC
From the text: as §1

[15] = system: Bacillus subtilis ATCC 6633; experiment: as above; details: ATCC6633, read-out: minimum inhibitory concentration, MIC
From the text: as §1

Escherichia coli W3630 = experiment: as above; details: read-out: minimum inhibitory concentration, MIC
From the text: as §1

[16] = system: Pseudomonas aeruginosa ML4561; experiment: as above; details: ML4561, read-out: minimum inhibitory concentration, MIC
From the text: as §1

[17] = system: Pseudomonas aeruginosa ML4561 Rms164-1; experiment: as above; details: ML4561RMS1641, read-out: minimum inhibitory concentration, MIC
From the text: as §1

[18] = system: Pseudomonas aeruginosa 2512; experiment: as above; details: read-out: minimum inhibitory concentration, MIC
From the text: as §1

[19] = system: Streptococcus pyogenes N.Y.5; experiment: as above; details: read-out: minimum inhibitory concentration, MIC
From the text: as §1

[20] = system: Klebsiella pneumonia ATC 10031; experiment: as above; details: Klebsiella pneumoniae, ATC10031, read-out: minimum inhibitory concentration, MIC
From the text: as §1

[21] = system: Pseudomonas aeruginosa ML4561 RP4; experiment: as above; details: ML4561RP4, read-out: minimum inhibitory concentration, MIC
From the text: as §1

Question: How did the antibacterial effect (Gram negative bacteria) turn out when `CNC1C(O)C(OC2C(N)CC(N)C(OC3OC(CN)=CCC3N)C2O)OCC1(C)O` (stereo not shown) [G-367-2] was run?
Answer: The antibacterial effect was “strong antibacterial effect”.

Question: And the MIC [1]?
Answer: Its MIC is 1.6 µg/mL (≈ 3.58 µM).

Question: And the MIC [2]?
Answer: The MIC was 3.1 µg/mL (≈ 6.93 µM).

Question: And the MIC [3]?
Answer: The MIC was 25 µg/mL (≈ 55.9 µM).

Question: And the MIC [4]?
Answer: Its MIC is > 100 µg/mL.

Question: And the MIC (Pseudomonas putida 1842)?
Answer: The MIC was > 100 µg/mL.

Question: What about the MIC [5] of the same molecule?
Answer: Its MIC is 3.1 µg/mL (≈ 6.93 µM).

Question: And the MIC [6]?
Answer: The MIC was 1.6 µg/mL (≈ 3.58 µM).

Question: What about the MIC (Proteus rettgeri ACR) of the same molecule?
Answer: The MIC was 3.1 µg/mL (≈ 6.93 µM).

Question: What about the MIC (Shigella sonnei E33) of the same molecule?
Answer: The MIC was 3.1 µg/mL (≈ 6.93 µM).

Question: What about the MIC [7] of the same molecule?
Answer: The MIC was > 100 µg/mL.

Question: What about the MIC [8] of the same molecule?
Answer: The MIC was 1.6 µg/mL (≈ 3.58 µM).

Question: And the MIC [9]?
Answer: The MIC was 12.5 µg/mL (≈ 27.9 µM).

Question: And the MIC [10]?
Answer: The MIC was 3.1 µg/mL (≈ 6.93 µM).

Question: And the MIC [11]?
Answer: Its MIC is > 100 µg/mL.

Question: And the MIC [12]?
Answer: Its MIC is 12.5 µg/mL (≈ 27.9 µM).

Question: And the MIC [13]?
Answer: Its MIC is 12.5 µg/mL (≈ 27.9 µM).

Question: And the MIC [14]?
Answer: Its MIC is 1.6 µg/mL (≈ 3.58 µM).

Question: What about the MIC (Serratia marcescens) of the same molecule?
Answer: Its MIC is 50 µg/mL (≈ 112 µM).

Question: And the MIC (Proteus morganii 0239)?
Answer: The MIC was 6.3 µg/mL (≈ 14.1 µM).

Question: And the MIC [15]?
Answer: The MIC was 1.6 µg/mL (≈ 3.58 µM).

Question: And the MIC (Escherichia coli W3630)?
Answer: Its MIC is 1.6 µg/mL (≈ 3.58 µM).

Question: What about the MIC [16] of the same molecule?
Answer: The MIC was 125 µg/mL (≈ 279 µM).

Question: And the MIC [17]?
Answer: The MIC was 50 µg/mL (≈ 112 µM).

Question: And the MIC [18]?
Answer: The MIC was > 100 µg/mL.

Question: And the MIC [19]?
Answer: The MIC was 6.3 µg/mL (≈ 14.1 µM).

Question: And the MIC [20]?
Answer: Its MIC is 1.6 µg/mL (≈ 3.58 µM).

Question: And the MIC [21]?
Answer: Its MIC is 6.3 µg/mL (≈ 14.1 µM).
